Reference: BindingDB's records for doi:10.1021/jm960441m (Upjohn, 1997)

Biological target: T1, Dimer of Gag-Pol polyprotein [489-587] (Human immunodeficiency virus 1, UniProt P12497)
T1 construct: 489-587
Assay: Protease Inhibition Assay
From the text: HIV-1 protease was purified and refolded from E. coli inclusion bodies. […] In the presence of HIV-l protease, the substrate is rapidly cleaved into two parts. The biotinylated amino terminal fragment binds to the avidin beads while the FITC-containing carboxy1 terminal fragment is removed through the membrane. […] The bound fluorescence is obtained by processing on an IDEXX Screen Machine. Determination of Ki values with this assay requires analysis under conditions in which substrate concentration resides substantially below Km and the inhibitor concentrations greatly exceeds the Ki value and the enzyme concentration.

| Compound | Ki [nM] | Ki (pH 5, 22 °C) [nM] |
| --- | --- | --- |
| O=c1oc2c(c(O)c1C(c1cccc(NS(=O)(=O)c3ccc(F)cc3)c1)C1CC1)CCCCCC2 (stereo unspecified) | 3.1 |  |
| O=c1oc2c(c(O)c1C(c1cccc(NS(=O)(=O)c3ccc(Cl)c(Cl)c3Cl)c1)C1CC1)CCCCCC2 (stereo unspecified) [2,3,4-trichloro-N-{3-[cyclopropyl({4-hydroxy-2-oxo-2H,5H,6H,7H,8H,9H,10H-cycloocta[b]pyran-3-yl})methyl]phenyl}benzene-1-sulfonamide] | 8.8 |  |
| O=c1oc2c(c(O)c1C(c1cccc(NS(=O)(=O)c3cccc(Cl)c3Cl)c1)C1CC1)CCCCCC2 (stereo unspecified) [2,3-dichloro-N-{3-[cyclopropyl({4-hydroxy-2-oxo-2H,5H,6H,7H,8H,9H,10H-cycloocta[b]pyran-3-yl})methyl]phenyl}benzene-1-sulfonamide] | 7.6 |  |
| O=c1oc2c(c(O)c1C(c1cccc(NS(=O)(=O)c3ccc(Cl)cc3Cl)c1)C1CC1)CCCCCC2 (stereo unspecified) [2,4-dichloro-N-{3-[cyclopropyl({4-hydroxy-2-oxo-2H,5H,6H,7H,8H,9H,10H-cycloocta[b]pyran-3-yl})methyl]phenyl}benzene-1-sulfonamide] | 6.2 |  |
| O=c1oc2c(c(O)c1C(c1cccc(NS(=O)(=O)c3cc(Cl)ccc3Cl)c1)C1CC1)CCCCCC2 (stereo unspecified) [2,5-dichloro-N-{3-[cyclopropyl({4-hydroxy-2-oxo-2H,5H,6H,7H,8H,9H,10H-cycloocta[b]pyran-3-yl})methyl]phenyl}benzene-1-sulfonamide] | 74 |  |
| O=c1oc2c(c(O)c1C(c1cccc(NS(=O)(=O)c3c(Cl)cccc3Cl)c1)C1CC1)CCCCCC2 (stereo unspecified) [2,6-dichloro-N-{3-[cyclopropyl({4-hydroxy-2-oxo-2H,5H,6H,7H,8H,9H,10H-cycloocta[b]pyran-3-yl})methyl]phenyl}benzene-1-sulfonamide] | > 200 |  |
| O=c1oc2c(c(O)c1C(c1cccc(NS(=O)(=O)c3ccccc3Cl)c1)C1CC1)CCCCCC2 (stereo unspecified) [2-chloro-N-{3-[cyclopropyl({4-hydroxy-2-oxo-2H,5H,6H,7H,8H,9H,10H-cycloocta[b]pyran-3-yl})methyl]phenyl}benzene-1-sulfonamide] |  | 9.3 |
| N#Cc1ccccc1S(=O)(=O)Nc1cccc(C(c2c(O)c3c(oc2=O)CCCCCC3)C2CC2)c1 (stereo unspecified) [2-cyano-N-{3-[cyclopropyl({4-hydroxy-2-oxo-2H,5H,6H,7H,8H,9H,10H-cycloocta[b]pyran-3-yl})methyl]phenyl}benzene-1-sulfonamide] |  | 7.4 |
| O=c1oc2c(c(O)c1C(c1cccc(NS(=O)(=O)c3ccc(Cl)c(Cl)c3)c1)C1CC1)CCCCCC2 (stereo unspecified) [3,4-dichloro-N-{3-[cyclopropyl({4-hydroxy-2-oxo-2H,5H,6H,7H,8H,9H,10H-cycloocta[b]pyran-3-yl})methyl]phenyl}benzene-1-sulfonamide] | 4.1 |  |
| O=c1oc2c(c(O)c1C(c1cccc(NS(=O)(=O)c3cc(Cl)cc(Cl)c3)c1)C1CC1)CCCCCC2 (stereo unspecified) [3,5-dichloro-N-{3-[cyclopropyl({4-hydroxy-2-oxo-2H,5H,6H,7H,8H,9H,10H-cycloocta[b]pyran-3-yl})methyl]phenyl}benzene-1-sulfonamide] | 6.9 |  |
| O=c1oc2c(c(O)c1C(c1cccc(NS(=O)(=O)c3cccc(Br)c3)c1)C1CC1)CCCCCC2 (stereo unspecified) [3-bromo-N-{3-[cyclopropyl({4-hydroxy-2-oxo-2H,5H,6H,7H,8H,9H,10H-cycloocta[b]pyran-3-yl})methyl]phenyl}benzene-1-sulfonamide] |  | 2.6 |
| O=c1oc2c(c(O)c1C(c1cccc(NS(=O)(=O)c3cccc(Cl)c3)c1)C1CC1)CCCCCC2 (stereo unspecified) [3-chloro-N-{3-[cyclopropyl({4-hydroxy-2-oxo-2H,5H,6H,7H,8H,9H,10H-cycloocta[b]pyran-3-yl})methyl]phenyl}benzene-1-sulfonamide] |  | 2.7 |
| [N-]=[N+]=Nc1ccc(S(=O)(=O)Nc2cccc(C(c3c(O)c4c(oc3=O)CCCCCC4)C3CC3)c2)cc1 (stereo unspecified) [4-azido-N-{3-[cyclopropyl({4-hydroxy-2-oxo-2H,5H,6H,7H,8H,9H,10H-cycloocta[b]pyran-3-yl})methyl]phenyl}benzene-1-sulfonamide] | 2.6 |  |
| O=c1oc2c(c(O)c1C(c1cccc(NS(=O)(=O)c3ccc(Br)cc3)c1)C1CC1)CCCCCC2 (stereo unspecified) [4-bromo-N-{3-[cyclopropyl({4-hydroxy-2-oxo-2H,5H,6H,7H,8H,9H,10H-cycloocta[b]pyran-3-yl})methyl]phenyl}benzene-1-sulfonamide] | 2.1 |  |
| O=c1oc2c(c(O)c1C(c1cccc(NS(=O)(=O)c3ccc(Cl)cc3)c1)C1CC1)CCCCCC2 (stereo unspecified) [4-chloro-N-{3-[cyclopropyl({4-hydroxy-2-oxo-2H,5H,6H,7H,8H,9H,10H-cycloocta[b]pyran-3-yl})methyl]phenyl}benzene-1-sulfonamide] | 2.5 |  |
| N#Cc1ccc(S(=O)(=O)Nc2cccc(C(c3c(O)c4c(oc3=O)CCCCCC4)C3CC3)c2)nc1 (stereo unspecified) [5-cyano-N-{3-[cyclopropyl({4-hydroxy-2-oxo-2H,5H,6H,7H,8H,9H,10H-cycloocta[b]pyran-3-yl})methyl]phenyl}pyridine-2-sulfonamide] | 1 |  |

| Compound | Ki [nM] | Ki (pH 5, 22 °C) [nM] |
| --- | --- | --- |
| O=c1oc2c(c(O)c1C(c1cccc(NS(=O)(=O)/C=C/c3ccccc3)c1)C1CC1)CCCCCC2 (stereo unspecified) [(E)-N-{3-[cyclopropyl({4-hydroxy-2-oxo-2H,5H,6H,7H,8H,9H,10H-cycloocta[b]pyran-3-yl})methyl]phenyl}-2-phenylethene-1-sulfonamide] |  | 3 |
| O=c1oc2c(c(O)c1C(c1cccc(NS(=O)(=O)c3cccc4cccnc34)c1)C1CC1)CCCCCC2 (stereo unspecified) [N-[3-[Cyclopropyl(5,6,7,8,9,10-hexahydro-4-hydroxy-2-oxo-2H-cycloocta[b]pyran-3-yl)methyl]phenyl]-8-quinolinesulfonamide] | 1.9 |  |
| O=c1oc2c(c(O)c1C(c1cccc(NS(=O)(=O)Cc3ccccc3)c1)C1CC1)CCCCCC2 (stereo unspecified) [N-[3-[Cyclopropyl(5,6,7,8,9,10-hexahydro-4-hydroxy-2-oxo-2H-cycloocta[b]pyran-3-yl)methyl]phenyl]benzenemethanesulfonamide] |  | 13 |
| O=c1oc2c(c(O)c1C(c1cccc(NS(=O)(=O)c3cscn3)c1)C1CC1)CCCCCC2 (stereo unspecified) [N-{3-[cyclopropyl({4-hydroxy-2-oxo-2H,5H,6H,7H,8H,9H,10H-cycloocta[b]pyran-3-yl})methyl]phenyl}-1,3-thiazole-4-sulfonamide] | 1.6 |  |
| O=c1oc2c(c(O)c1C(c1cccc(NS(=O)(=O)c3ccc(F)cc3F)c1)C1CC1)CCCCCC2 (stereo unspecified) [N-{3-[cyclopropyl({4-hydroxy-2-oxo-2H,5H,6H,7H,8H,9H,10H-cycloocta[b]pyran-3-yl})methyl]phenyl}-2,4-difluorobenzene-1-sulfonamide] | 4.1 |  |
| Cc1cccc(C)c1S(=O)(=O)Nc1cccc(C(c2c(O)c3c(oc2=O)CCCCCC3)C2CC2)c1 (stereo unspecified) [N-{3-[cyclopropyl({4-hydroxy-2-oxo-2H,5H,6H,7H,8H,9H,10H-cycloocta[b]pyran-3-yl})methyl]phenyl}-2,6-dimethylbenzene-1-sulfonamide] | > 200 |  |
| O=c1oc2c(c(O)c1C(c1cccc(NS(=O)(=O)c3ccccc3C(F)(F)F)c1)C1CC1)CCCCCC2 (stereo unspecified) [N-{3-[cyclopropyl({4-hydroxy-2-oxo-2H,5H,6H,7H,8H,9H,10H-cycloocta[b]pyran-3-yl})methyl]phenyl}-2-(trifluoromethyl)benzene-1-sulfonamide] |  | 21 |
| O=c1oc2c(c(O)c1C(c1cccc(NS(=O)(=O)c3ccccc3F)c1)C1CC1)CCCCCC2 (stereo unspecified) [N-{3-[cyclopropyl({4-hydroxy-2-oxo-2H,5H,6H,7H,8H,9H,10H-cycloocta[b]pyran-3-yl})methyl]phenyl}-2-fluorobenzene-1-sulfonamide] |  | 11 |
| O=c1oc2c(c(O)c1C(c1cccc(NS(=O)(=O)CCc3ccccc3)c1)C1CC1)CCCCCC2 (stereo unspecified) [N-{3-[cyclopropyl({4-hydroxy-2-oxo-2H,5H,6H,7H,8H,9H,10H-cycloocta[b]pyran-3-yl})methyl]phenyl}-2-phenylethane-1-sulfonamide] |  | 3.9 |
| O=c1oc2c(c(O)c1C(c1cccc(NS(=O)(=O)c3ccc(C(F)(F)F)c(C(F)(F)F)c3)c1)C1CC1)CCCCCC2 (stereo unspecified) [N-{3-[cyclopropyl({4-hydroxy-2-oxo-2H,5H,6H,7H,8H,9H,10H-cycloocta[b]pyran-3-yl})methyl]phenyl}-3,4-bis(trifluoromethyl)benzene-1-sulfonamide] | 47 |  |
| O=c1oc2c(c(O)c1C(c1cccc(NS(=O)(=O)c3cccc(C(F)(F)F)c3)c1)C1CC1)CCCCCC2 (stereo unspecified) [N-{3-[cyclopropyl({4-hydroxy-2-oxo-2H,5H,6H,7H,8H,9H,10H-cycloocta[b]pyran-3-yl})methyl]phenyl}-3-(trifluoromethyl)benzene-1-sulfonamide] |  | 3 |
| O=c1oc2c(c(O)c1C(c1cccc(NS(=O)(=O)c3cccc([N+](=O)[O-])c3)c1)C1CC1)CCCCCC2 (stereo unspecified) [N-{3-[cyclopropyl({4-hydroxy-2-oxo-2H,5H,6H,7H,8H,9H,10H-cycloocta[b]pyran-3-yl})methyl]phenyl}-3-nitrobenzene-1-sulfonamide] |  | 4.7 |
| O=c1oc2c(c(O)c1C(c1cccc(NS(=O)(=O)c3ccc(OC(F)(F)F)cc3)c1)C1CC1)CCCCCC2 (stereo unspecified) [N-{3-[cyclopropyl({4-hydroxy-2-oxo-2H,5H,6H,7H,8H,9H,10H-cycloocta[b]pyran-3-yl})methyl]phenyl}-4-(trifluoromethoxy)benzene-1-sulfonamide] | 4 |  |
| O=c1oc2c(c(O)c1C(c1cccc(NS(=O)(=O)c3ccc(C(F)(F)F)cc3)c1)C1CC1)CCCCCC2 (stereo unspecified) [N-{3-[cyclopropyl({4-hydroxy-2-oxo-2H,5H,6H,7H,8H,9H,10H-cycloocta[b]pyran-3-yl})methyl]phenyl}-4-(trifluoromethyl)benzene-1-sulfonamide] | 6.2 |  |
| O=c1oc2c(c(O)c1C(c1cccc(NS(=O)(=O)c3ccc(I)cc3)c1)C1CC1)CCCCCC2 (stereo unspecified) [N-{3-[cyclopropyl({4-hydroxy-2-oxo-2H,5H,6H,7H,8H,9H,10H-cycloocta[b]pyran-3-yl})methyl]phenyl}-4-iodobenzene-1-sulfonamide] | 3.1 |  |
